Measurements as given in patent US20050165011A1, “Benzoxazine and benzoxazinone substituted triazoles” (priority 2002, published 2005).

What was measured:
[1] = system: TGF-β signaling (PAl-1 promoter luciferase reporter, HepG2 cells); assay: Cellular transcriptional assay (PAI-1 promoter luciferase reporter in HepG2 cells exposed to TGF-β); type: cell-based; conditions: 500 μM CPO in the presence of TGF-β; toxicity control
Procedure: Assay 1 (Cellular Transcriptional Assay)
The assay was performed in HepG2 cells stably transfected with the PAl-1 promoter (known to be a strong TGF-β responsive promoter) linked to a luciferase (firefly) reporter gene. The compounds were selected on their ability to inhibit luciferase activity in cells exposed to TGF-β. In addition, cells were transfected with a second luciferase (Renilla) gene which was not driven by a TGF-β responsive promoter and was used as a toxicity control.
96 well microplates were seeded, using a multidrop apparatus, with the stably transfected cell line at a concentration of 35000 cells per well in 200 μl of serum-containing medium. These plates were placed in a cell incubator.
18 to 24 hours later (Day 2), cell-incubation procedure was launched. […] Each well contained only one candidate compound and its effect on the PAl-1 promoter was monitored.
Columns 11 and 12 were employed as controls. […] Column 11 was used to determine the ‘reference TGF-β induced firefly luciferase value’ against which values measured in the test wells (to quantify inhibitory activity) were compared. […]
12 to 18 hours later (day 3), the luciferase quantification procedure was launched. […] Following agitation (15 to 30 mins), luciferase activities of the plates were read in a dual-injector luminometer (BMG lumistar). […]

SMILES | melting point [°C] | firefly and renilla luciferase activities relative to TGF-β only wells [1]
Cc1cccc(-c2[nH]nnc2-c2ccc3c(c2)N(CCN2CCOCC2)C(=O)CO3)n1 | 150 | –
CCN1C(=O)COc2ccc(-c3nn[nH]c3-c3cccc(C)n3)cc21 | 187 | –
O=C1C=CCC1 [CPO, Cyclopentenone] | – | around 50%

The next lines start with results.

melting point [°C] | SMILES | firefly and renilla luciferase activities relative to TGF-β only wells [1]
224 | Cc1cccc(-c2[nH]nnc2-c2ccc3c(c2)NC(=O)CO3)n1 | –
256 | O=C1COc2ccc(-c3nn[nH]c3-c3ccccn3)cc2N1 | –
220 | O=C1COc2ccc(-c3nn[nH]c3-c3cccc(Cl)c3)cc2N1 | –
